Patent publication US6288122A, “Gardos channel antagonists” (Icagen, Inc., priority 1999, dated 2001)
Several values for one entry are separate records, joined by “and”; a condition that tells them apart may be missing. Equal entries are not always repeated. Entries after “also recorded” stand apart in the source; their conditions may differ. Where two headings read alike, the source gives them in different places.

Experiments:
[1] = system: IKs vs. Gardos; assay: Selectivity for the Gardos channel relative to IKs (ratio of IC50s)
Procedure: Recordings of IKs current were made using the whole cell patch clamp methodology on guinea pig myocytes as described in Turgeon et al., Circulation Research 75: 879-86 (1994).
The selectivity of a particular compound for the Gardos channel relative to another potassium ion channel is conveniently determined as a ratio of two compound binding-related quantities (e.g., IC50).
The selectivity of the compounds for the Gardos channel was determined relative to IKs, an exemplary potassium ion channel.

[2] = in vitro; details: human, microsomes, pH 7.4
Procedure: The stability of the compounds in various biological milieus can be assayed by methods known in the art. In one embodiment, the stability of the compounds is assayed in an in vitro preparation. In a preferred embodiment, the in vitro preparation is a liver microsome preparation.
The reaction mixture contained 1.0 mg/ml human liver microsomal protein, 100 mM potassium phosphate (pH 7.4), 10 mM MgCl2 and an NADPH-generating system. The compounds were tested at a concentration of 5ΓM at 37° C. and the amount of intact compound remaining in the mixture after two hours calculated in terms of percent of original dose remaining.

[3] = biological target: T1, IKs (Cavia porcellus, UniProt O70344); assay: Whole cell patch clamp recordings of IKs current in guinea pig myocytes; format: cell-based; details: estimated IC50, read-out: Est. IC50 Potency vs. IKs
T1 construct: Recordings of IKs current were made using the whole cell patch clamp methodology on guinea pig myocytes; endogenous in cells; host or cells: guinea pig myocytes (method of Turgeon et al., Circ. Res. 75: 879-86, 1994)
T1 sequence (Q60409 whole entry): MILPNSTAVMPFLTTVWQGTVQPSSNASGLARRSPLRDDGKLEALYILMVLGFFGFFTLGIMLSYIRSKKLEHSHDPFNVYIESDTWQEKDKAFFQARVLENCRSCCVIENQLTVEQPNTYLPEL
T1 sequence (O70344 whole entry): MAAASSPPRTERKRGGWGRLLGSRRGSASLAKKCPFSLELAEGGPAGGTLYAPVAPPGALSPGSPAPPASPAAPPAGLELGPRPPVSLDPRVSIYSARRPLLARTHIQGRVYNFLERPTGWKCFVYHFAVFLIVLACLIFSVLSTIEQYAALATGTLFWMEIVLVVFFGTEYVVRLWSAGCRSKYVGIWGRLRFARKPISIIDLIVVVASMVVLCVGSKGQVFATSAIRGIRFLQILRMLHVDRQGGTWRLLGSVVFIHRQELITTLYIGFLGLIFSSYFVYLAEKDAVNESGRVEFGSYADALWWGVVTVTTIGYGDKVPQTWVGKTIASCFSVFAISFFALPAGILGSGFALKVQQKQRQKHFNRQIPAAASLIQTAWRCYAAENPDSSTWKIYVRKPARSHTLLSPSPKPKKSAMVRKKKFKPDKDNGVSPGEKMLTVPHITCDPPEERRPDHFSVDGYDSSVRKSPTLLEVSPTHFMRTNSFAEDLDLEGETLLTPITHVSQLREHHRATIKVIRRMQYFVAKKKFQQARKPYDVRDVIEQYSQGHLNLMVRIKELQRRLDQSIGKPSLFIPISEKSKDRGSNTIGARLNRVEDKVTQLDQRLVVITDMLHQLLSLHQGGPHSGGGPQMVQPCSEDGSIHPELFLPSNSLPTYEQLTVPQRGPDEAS

[4] = biological target: T2, Gardos channel (Homo sapiens, UniProt O15554); assay: Inhibition of the Gardos channel in red blood cells (86Rb flux); format: cell-based; details: for improvement in potency (Gardos) over non-fluorinated triphenylacetamide 20: vs. compound 20
T2 construct: endogenous in cells; host or cells: red blood cells from heparinized whole blood
T2 sequence (O15554 whole entry): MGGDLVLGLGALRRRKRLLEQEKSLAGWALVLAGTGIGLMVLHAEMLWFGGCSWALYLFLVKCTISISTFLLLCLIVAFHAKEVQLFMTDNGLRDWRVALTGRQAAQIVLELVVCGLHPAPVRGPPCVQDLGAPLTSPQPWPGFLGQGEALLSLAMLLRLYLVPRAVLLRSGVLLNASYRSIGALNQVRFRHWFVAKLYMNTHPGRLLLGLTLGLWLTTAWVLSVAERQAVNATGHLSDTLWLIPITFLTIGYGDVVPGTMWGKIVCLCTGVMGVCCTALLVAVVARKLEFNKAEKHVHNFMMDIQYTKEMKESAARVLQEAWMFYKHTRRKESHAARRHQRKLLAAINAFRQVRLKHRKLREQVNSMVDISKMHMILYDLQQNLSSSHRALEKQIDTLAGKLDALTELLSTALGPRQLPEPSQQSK
Source text: The activity of the compounds of the invention towards ion channels, such as the Gardos channel can be assayed utilizing methods known in the art. […] Utilizing the methods described in this reference, both the percent inhibition of the Gardos channel and the IC50 of the compounds of the invention can be assayed.
In an exemplary assay, the inhibition by test compounds of an erythrocyte Gardos channel can be assayed using human red blood cells. The degree of inhibition can be measured using a detectable material such as ^86 Rb. In an exemplary assay, utilizing ^86 Rb, Gardos channel inhibition can be assayed by exposing red blood cells to ^86 Rb and a test compound and measuring the amount of ^86 Rb taken up by the cells. Numerous variations on this assay will be apparent to those of skill in the art.
Briefly, erythrocytes are exposed to a test compound and a ^86 Rb-containing medium. The initial rate of ^86 Rb transport can be calculated from a parameter such as the linear least square slope of ^86 Rb uptake by the cell(s). Inhibitory constants can be calculated by standard methods using computer-assisted nonlinear curve fitting.
Heparinized whole blood was washed three times with Modified Flux Buffer (MFB: 140 mM NaCl; 5 mM KCl; 10 mM Tris; 0.1 mM EGTA; pH=7.4). Washed cells were then incubated for 3 hours with ^86 Rb (5 μCi/mL). After this incubation period, the RBCs were washed three times with cold MFB. Washed ^86 Rb loaded RBCs were then incubated with a test compound of the invention for 10 minutes. ^86 Rb flux was then initiated by the addition of 20 μL/mL of a MFB solution containing 10 mM CaCl2 and 100 μM A23187, a calcium ionophore. This yielded a final concentration of 200 μM CaCl2 and 2 μM A23187 n the incubation medium. Cells were incubated for 10 minutes, spun down and the supernatant was removed. Samples were counted in a Wallace Microbeta liquid scintillation counter by Cerenkov emission. Total RBC ^86 Rb content was determined by lysing the RBCs with water and then precipitating protein using a 50:50 mixture of ethanol:chloroform. After a 20 minute microfuge spin, the aqueous and organic layers separated and the aqueous layer was removed and counted. Efflux is expressed as a percentage of the initial cell content of ^86 Rb.

[5] = Pharmacokinetic study in the rat (i.v. and p.o.); format: in vivo, male, Sprague-Dawley rats
Procedure: Pharmacokinctic studies were conducted in rats to extend the finding that selected fluoro substitution of the phenyl rings increased metabolic stability in vitro to an in vivo study. […] Blood samples were collected at 9 time points from predosing to 24 hours after dosing p.o. and at 11 time points from pre-dosing to 24 hours after i.v. dosing. Samples were prepared and analyzed for compound plasma concentration using LC-MS/MS.

[6] = system: Gardos channel of normal and sickle erythrocytes; details: cited from earlier work; for inhibition of Gardos channel / Ca2+-activated K+ flux: in vitro
[7] = system: Gardos channel; details: oral therapy; cited from earlier work
[8] = system: sickled cells; details: combined with a compound which stabilizes the oxyconformation of Hb S; cited from earlier work
[9] = system: IKs; details: myocytes; cited from earlier work
[10] = system: red cell Gardos channel; details: oral administration; cited from earlier work
[11] = erythrocytes, 86Rb, read-out: IC50 Potency vs. Gardos

SMILES	remaining at 2 h, 5 µM [2] [%]	IC50 [3] [µM]	IC50 [4, 11] [µM]	other results
NC(=O)C(c1ccc(F)cc1)(c1ccc(F)cc1)c1ccccc1F [Compound 5, bis(4-fluorophenyl)-2-fluorophenylacetamide]	71	1.4		fold more selective for the Gardos channel versus IKs than clotrimazole ([1]; vs. clotrimazole): ~18 fold and ~17 fold; fold more selective for the Gardos channel than the unsubstituted triphenylacetamide parent 20 ([1]; vs. compound 20): approximately 6 fold; metabolised at 2 h, 5 µM [2]: 29%; fold more potent than clotrimazole towards the Gardos channel [4]: ~10 fold
NC(=O)C(c1ccccc1)(c1ccccc1)c1ccc(F)cc1F [Compound 8]	39	5.7	0.034	metabolised at 2 h, 5 µM [2]: 61%
NC(=O)C(c1ccccc1)(c1ccc(F)cc1)c1ccc(F)cc1 [Compound 3, bis(4-fluorophenyl)phenylacetamide]	76	1.5		metabolised at 2 h, 5 µM [2]: 24%; bioavailability ([5]; plasma, po, 10 mg/kg p.o., 1 mg/kg i.v., rat): 100%
NC(=O)C(c1cccc(F)c1)(c1cccc(F)c1)c1cccc(F)c1 [Compound 17]	18	4		metabolised at 2 h, 5 µM [2]: 82%
NC(=O)C(c1ccccc1)(c1ccccc1)c1ccccc1 [Compound 20, reference compound]	13	1.1	0.05	metabolised at 2 h, 5 µM [2]: 87%
NC(=O)C(c1ccc(F)cc1)(c1cccc(F)c1)c1cccc(F)c1 [Compound 10]	59	1.3	0.012	Selectivity (IKs vs. Gardos) ([1]; ratio of IC50 towards IKs vs. IC50 towards the Gardos channel): 110
NC(=O)C(c1ccccc1)(c1ccccc1)c1c(F)c(F)c(F)c(F)c1F [Compound 6]			0.037	
NC(=O)C(c1ccccc1)(c1cccc(F)c1)c1cccc(F)c1 [Compound 9]	3	3.2	0.03	metabolised at 2 h, 5 µM [2]: 97%
NC(=O)C(c1ccccc1)(c1ccccc1)c1ccc(F)c(F)c1 [Compound 7]	15	1.2		metabolised at 2 h, 5 µM [2]: 85%
NC(=O)C(c1ccccc1)(c1ccccc1)c1ccccc1Cl [Compound 18]	6	7.3		elimination from the bloodstream ([5]; 1 mg/kg i.v., rat): fast; plasma level after oral dosing ([5]; 10 mg/kg p.o., 2 hour post-dose sample): no detectable levels; plasma level after oral dosing ([5]; 10 mg/kg p.o., between 0.25 and 1 hour after dosing): 31 to 65 ng/mL; oral bioavailability ([5]; 10 mg/kg p.o., rat): very poor oral bioavailability; IC50 [4]: 0.01 µM
NC(=O)[C@](c1ccccc1)(c1ccc(F)cc1)c1ccccc1F [Compound 12]	44	1.8	0.005	improvement in potency (Gardos) of 12 over 8 [4]: ~700%; increase in potency (Gardos) over clotrimazole [4]: 2000%; improvement in potency (Gardos) over non-fluorinated triphenylacetamide 20 [4]: 1000%
OC(c1ccccc1)(c1ccccc1)c1ccccc1Cl [Compound 21, reference compound]	35	2.6		IC50 [4]: 0.5 µM
Clc1ccc(COC(Cn2ccnc2)c2ccc(Cl)cc2Cl)c(Cl)c1 (stereo not shown) [miconazole]				sickle cell dehydration [6]: effective at reducing sickle cell dehydration; inhibition of Gardos channel / Ca2+-activated K+ flux [6]: inhibit the Gardos channel in vitro
Clc1ccccc1C(c1ccccc1)(c1ccccc1)n1ccnc1 [Compound 19, clotrimazole]	4			effects of oral clotrimazole in patients with sickle cell disease [7]: induces inhibition of the Gardos channel and reduces erythrocyte ehydration; clogging rate of a micropore filter [8]: additive reduction in the clogging rate of a micropore filter; interaction with IKs [9]: interact with the slow component of the delayed rectifier potassium current in myocytes, IKs; effects of oral clotrimazole in SAD-1 mouse [10]: inhibition of the red cell Gardos channel, increased red cell K^+ content, a decreased mean corpuscular hemoglobin concentration (MCHC) and decreased cell density; inhibition of Gardos channel / Ca2+-activated K+ flux [6]: specific, potent inhibitor of the Gardos channel of normal and sickle erythrocytes; also recorded: blocks Ca^2+ -activated K^+ flux and cell dehydration in sickle erythrocytes
NC(=O)C(c1ccccc1)(c1ccc(F)cc1)c1ccccc1F (stereo not shown) [Compound 1, (2-fluorophenyl)-(4-fluorophenyl)phenylacetamide]	64	2		oral bioavailability ([5]; 10 mg/kg p.o., 1 mg/kg i.v., rat): 35%
NC(=O)C(c1ccccc1)(c1ccccc1F)c1ccccc1F [Compound 14]	46			
NC(=O)C(c1ccc(F)cc1)(c1ccc(F)cc1)c1ccc(F)cc1 [Compound 13]	53	1.1		
NC(=O)C(c1ccc(F)cc1)(c1ccc(F)cc1)c1cccc(F)c1 [Compound 16, bis(4-fluorophenyl)-3-fluorophenylacetamide]	57	1.9		
NC(=O)C(c1ccccc1)(c1ccccc1)c1ccccc1F [Compound 2]	80		0.015	improvement in potency (Gardos) over non-fluorinated triphenylacetamide 20 [4]: 330%
Clc1ccc(COC(Cn2ccnc2)c2ccc(Cl)cc2Cl)cc1 (stereo not shown) [econazole]				sickle cell dehydration [6]: effective at reducing sickle cell dehydration; inhibition of Gardos channel / Ca2+-activated K+ flux [6]: inhibit the Gardos channel in vitro
NC(=O)[C@@](c1ccccc1)(c1ccc(F)cc1)c1ccccc1F [Compound 11]	78	1.3	0.005	increase in potency (Gardos) of 11 over 9 [4]: 600%
NC(=O)C(c1ccc(F)cc1)(c1ccccc1F)c1ccccc1F [Compound 15]	53			
Clc1ccc(CCC(Cn2ccnc2)Sc2c(Cl)cccc2Cl)cc1 (stereo not shown) [butoconazole]				sickle cell dehydration [6]: effective at reducing sickle cell dehydration; inhibition of Gardos channel / Ca2+-activated K+ flux [6]: inhibit the Gardos channel in vitro
CNC(=O)C(c1ccccc1)(c1ccccc1)c1ccccc1 [Compound 22, reference compound]	8	2.6	0.1	
NC(=O)C(c1ccccc1)(c1ccccc1)c1ccc(F)cc1 [Compound 4]	80		0.013	
